Experimental data: patent US20070078148A1, “Agents for preventing and/or treating higher brain dysfunctions” (Kyowa Hakko Kogyo Co., Ltd., priority 2003, published 2007)
Marks after values point to notes of the source that are not given here.

Legend:
Type in all cases: in vivo, rat
[1] = test system: Wistar female rats with bilateral ligation of the common carotid arteries; test: Maze-learning test in rats prepared by bilateral ligation of the common carotid arteries; conditions: FIG. 1
Protocol: Experiment was carried out using 10 Wistar female rats (body weight 210-310 g) for one group.
Under anesthesia with pentobarbital, the necks of rats were incised and the bilateral common carotid arteries were ligated (ligated rats). Separately, the necks of rats were incised but the bilateral common carotid arteries were not ligated (sham operation rats). Under anesthesia with pentobarbital, the rat was fixed on a brain-fixing apparatus for rat (Narishige; SR-6). Hydrogen electrodes (Unique Medical; UHE-100, IS needle type) were inserted into a brain coordinate (A2.0, L2.0, D-2.0). Hydrogen indifferent electrode (Unique Medical) was placed on the rat's neck. An artificial respiration was applied to the rat through a respiratory apparatus (Shinano Seisakusyo; SN-480-7), through which about 40 mL of hydrogen gas was forcibly inhaled 2 or 3 times at intervals of about 15 minutes. […]
Running for the maze-learning test was performed twice. […] At that time, the frequency of selection of the lanes required for obtaining the 4 hollows of milk was recorded up to 16th round of selection.
The maze-learning test was started from 4 weeks after the bilateral ligation of the common carotid arteries. […] The lanes on which blocks were placed in the first running were determined according to each rat and were maintained constantly during the test period. […]

[2] = test system: SD male rats; test: Test for learning of active avoidance (shuttle box, conditioned avoidance behavior); conditions: 1 hour before the test; for Avoidance rate (%): average in 10 rats, Solvent 90.8
Protocol: Experiment was carried with using 10 SD male rats (body weight: 220-280 g) for one group.
Using a shuttle box apparatus consisting of two boxes (TK-401S; Unicom), the rats were made to learn and train (escape training) conditioned avoidance behavior. In one trial in the escape training, an alarm stimulus by light and buzzer sound as a conditioned stimulus was given to the rats for 8 seconds. […] Repetition of the trial was conducted at interval times of 5 seconds, and the escape training was repeated 50 trials/1 training/1 day for 10 days.
The test compound was used as a suspension in injectable distilled water containing 0.3% Tween-80 (by Otsuka Pharmaceutical Co., Ltd.; 0.3% Tween-80 solution) and orally administered to each of the rats at a dose of 10 mL/kg 1 hour before the test (Test compound-administered group). Separately, 0.3% Tween-80 solution alone was orally administered to each of the rats at a dose of 10 mL/kg 1 hour before the test (Solvent-administered group).
For analysis of the test results, various parameters were inputted in a personal computer (NEC; PC-9821Xe) and the avoidance rate (%) (average in 10 rats; the rats which took avoidance behavior by an alarm stimulus was regarded as successful escape; the avoidance rate when the rat succeeded in escaping all 50 trials was regarded as 100%) and the change of the total reaction latency (the time required for the completion of the whole trial) were compared with those of Solvent-administered group. The analysis was carried out by a Steel-test.

[3] = test system: albino female rats; test: Test for learning of passive avoidance (scopolamine-induced impairment of memory); conditions: for Rate of the rats exhibiting passive avoidance behavior (%) / Rate of the rats exhibiting passive avoidance behavior (rats/total): 2 hours after administration
Protocol: Experiment was carried out using 32 albino female rats (body weight: about 100 g) for one group.
Test for learning of passive avoidance was conducted in a test box (40 cm×31 cm×29 cm) in which a stainless steel grid was spread on the floor so that an electric shock of 1.1 mA can be give randomly. In the test box, a plastic plate (15 cm×5 cm) of 0.5 cm thickness was placed at a corner to cover the floor; and the test box comprised a mechanism that when a rat placed on the plate steps down on the floor grid, the rat results in receiving an electric shock. Usually, the rat attacked by an electric shock immediately gets back on the plastic plate but tries to get down on the floor; then, the rat is attacked by an electric shock again. Usually, the rat gradually changes its behavior with repetition of the shock (learning and training), resulting in staying on the plastic plate (passive avoidance behavior).
After the learning and training, the rats keeping the memory were selected and used for the test based on the memory-keeping test as mentioned below.
The test compound was used as a suspension thereof in distilled water containing 0.3% Tween-80; and scopolamine was used as a solution thereof in distilled water (by Sigma).
To each of the rats which learned the passive avoidance behavior, immediately after learning, 1 mg/kg (2 mL/kg volume) of scopolamine (subcutaneous administration) and 2 mL/kg volume of a test compound (oral administration) was administered simultaneously (Test compound-administered group); and 2 hours after administration, the rats were evaluated whether they kept memory of learning of the passive avoidance behavior. Separately, to each of the rats which learned the passive avoidance behavior, immediately after learning, 2 mL/kg volume of 0.3% Tween-80 solution alone was orally administered, and the rats were referred to as Solvent-administered group; while in the same manner, the rats to which 1 mg/kg of scopolamine (2 mL/kg volume) each were administered subcutaneously, were referred to as Scopolamine-administered group.

[4] = test system: Wistar (Han) male rats; test: Test for learning a delayed alternating problem (non-matching to sample, Skinner box); conditions: 0.3 mg/kg oral once a day
Protocol: The test was carried out in a manner similar to the method as described in Drug Dev. Res., 35, p.83-95 (1996).
Experiment was carried out using 10 Wistar (Han) male rats (body weight 200-250 g) for one group.
A Skinner box (30 cm×25 cm×30 cm) equipped with 3 pull-type lever (at the center, left and right sides) connected to a feeding vessel (supplying 45 mg diet pellet) was used in the experiment. The control of the test condition and the data accumulation were automatically conducted by connecting with a MED.PC program system.
Each rat received learning and training of lever pushing, and thereafter learning and training of a delayed alternating problem. In the learning and training of lever pushing, the rat learned and was trained so that the diet could be obtained by pushing any one of the center, left and right pull-type levers. In the subsequent learning and training of delayed alternating problem, the rat learned and was trained that the diet could be obtained by pushing any one of the left and right levers at first, and then the pushed lever was withdrawn; then, 5 seconds after that, both of the left and right levers were presented, but the diet was supplied only when the opposite side lever of the one pushed previously was pushed.
The test compound was used as a suspension thereof in injectable distilled water containing 0.5% methylcellulose (MC) (Otsuka Pharmaceutical Co.) and was administered orally to each of the rats which learned and trained the lever pushing at a dose of 10 mL/kg volume once a day from the start of learning and training of a delayed alternating problem continuously for a week (Test compound-administered group). Separately, to each of the rats which learned and trained the lever pushing, 0.5% MC solution alone was orally administered at a dose of 10 mL/kg volume once a day from the start of learning and training of a delayed alternating problem continuously for 1 week, and the rats were referred to as Solvent-administered group.
The accuracy rate for the reaction was indicated by the rate (%) of correctly selecting the left or right lever (average of 10 rats), and the test results were analyzed by one-way ANOVA-Student's t test.

[5] = 0.3 mg/kg oral with scopolamine 1 mg/kg s.c.
[6] = 3.0 mg/kg oral with scopolamine 1 mg/kg s.c.
[7] = 30 mg/kg oral with scopolamine 1 mg/kg s.c.

Structure (SMILES)	Decrease of the learning results (lane selection frequency, second running) caused by bilateral ligation of the common carotid arteries ([1]; 1 mg/kg oral one hour before first trial, p<0.025 vs Solvent-administered group)	Decrease of the learning results (lane selection frequency, second running) caused by bilateral ligation of the common carotid arteries ([1]; 3 mg/kg oral one hour before first trial, p<0.005 vs Solvent-administered group)	Time required for completion of the whole trial (sec) ([2]; 0.3 mg/kg oral, Solvent 99.1)	Time required for completion of the whole trial (sec) ([2]; 3.0 mg/kg oral, Solvent 99.1)	Rate of the rats exhibiting passive avoidance behavior (%) [3, 5]	Rate of the rats exhibiting passive avoidance behavior (rats/total) [3, 5]	Rate of the rats exhibiting passive avoidance behavior (%) [3, 6]	Rate of the rats exhibiting passive avoidance behavior (rats/total) [3, 6]	Rate of the rats exhibiting passive avoidance behavior (%) [3, 7]	Rate of the rats exhibiting passive avoidance behavior (rats/total) [3, 7]	Rate of the rats exhibiting the passive avoidance behavior in comparison with Scopolamine-administered group ([3]; administered simultaneously with scopolamine, p<0.05 Two-tailed Chi Square test)	Accuracy Rate for the reaction everyday (%) (Mean ± Standard deviation) ([4]; 1st day, Solvent 48.3 ± 2.9)	Accuracy Rate for the reaction everyday (%) (Mean ± Standard deviation) ([4]; 3rd day, Solvent 39.4 ± 2.9)	Accuracy Rate for the reaction everyday (%) (Mean ± Standard deviation) ([4]; 5th day, Solvent 47.7 ± 2.1)	Accuracy rate for the reaction in a week (%) (Mean ± Standard deviation) ([4]; in a week, Solvent 45.4 ± 1.6, 0.3 mg/kg)	Time required for completion of the whole trial ([2]; 0.03 mg/kg oral, Solvent 99.1)	Avoidance rate (%) ([2]; 0.03 mg/kg oral)	Avoidance rate (%) ([2]; 0.3 mg/kg oral)	Rate of the rats exhibiting passive avoidance behavior (rats/total) ([3]; scopolamine alone 1 mg/kg s.c., Solvent 26/32)
COc1cc(/C=C/c2nc3c(c(=O)n(C)c(=O)n3C)n2C)cc(OC)c1OC [Compound 1]	significantly improved	significantly improved	significantly reduced	significantly reduced															
CCn1c(=O)c2c(nc(/C=C/c3ccc(OC)c(OC)c3)n2C)n(CC)c1=O [Compound 2]			64.9 * sec	65.3 ** sec	(53.1%)	17/32*	(75.0%)	24/32*	(84.4%)	27/32*	significantly increased	49.7 ± 2.1 NS %	49.4 ± 3.4 %	60.0 ± 3.0 %	50.6±1.5%	81.2 s	96.2%	97.2%	
CN1[C@@H]2C[C@@H](OC(=O)[C@H](CO)c3ccccc3)C[C@H]1[C@@H]1O[C@@H]12 [Scopolamine, scopolamine, reference compound]																			4/32
